A value given as a limit tells only on which side of the number the result lay.

32 compounds from patent US12441689B2 (EpiVario, Inc., priority 2019, dated 2025) can be followed below.

human ACSS2 protein, sequence (Q9NR19 whole entry): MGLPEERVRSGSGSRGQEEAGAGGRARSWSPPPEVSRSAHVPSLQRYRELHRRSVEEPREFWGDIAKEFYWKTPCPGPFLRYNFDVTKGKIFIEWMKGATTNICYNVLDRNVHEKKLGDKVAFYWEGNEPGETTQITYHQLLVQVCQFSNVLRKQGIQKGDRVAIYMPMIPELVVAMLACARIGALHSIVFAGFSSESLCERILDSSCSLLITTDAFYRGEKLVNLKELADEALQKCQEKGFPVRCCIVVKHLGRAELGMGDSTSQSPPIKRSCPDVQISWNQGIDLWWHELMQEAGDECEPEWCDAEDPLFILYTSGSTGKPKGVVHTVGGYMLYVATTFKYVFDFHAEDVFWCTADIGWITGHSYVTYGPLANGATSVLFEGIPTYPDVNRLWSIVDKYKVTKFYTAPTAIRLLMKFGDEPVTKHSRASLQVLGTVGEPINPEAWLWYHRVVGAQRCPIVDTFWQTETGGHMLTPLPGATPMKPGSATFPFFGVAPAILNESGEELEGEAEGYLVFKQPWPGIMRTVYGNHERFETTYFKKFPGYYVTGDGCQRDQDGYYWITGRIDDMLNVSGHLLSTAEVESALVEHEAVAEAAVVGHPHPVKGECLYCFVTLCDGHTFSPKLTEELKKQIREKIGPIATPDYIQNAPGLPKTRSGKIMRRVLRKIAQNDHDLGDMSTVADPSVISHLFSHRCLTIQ

This experiment has as its target human ACSS2 protein (Homo sapiens (Human), UniProt Q9NR19). In words: ACSS2 Cell-Free Activity Assay (Cell-Free IC50). Conditions: 10 nM human ACSS2 protein, 90 minutes at 37 C, pyrophosphatase-coupled, Biomol Green absorbance at 620 nm; read-out: ACSS2 Biochemical IC50. An excerpt: ACSS2 Cell-Free Activity Assay (Cell-Free IC50)
With `CCc1nn(-c2ccc(OC(F)F)cc2)c(C)c1C(=O)Nc1cccc(C(C)(F)F)c1` [Compound 155, N-(3-(1,1-difluoroethyl)phenyl)-1-(4-(difluoromethoxy)phenyl)-3-ethyl-5-methyl-1H-pyrazole-4-carboxamide], the IC50 – broadly, the midpoint of a concentration-inhibition curve – was above 100 nM.

On to `CCC(F)(F)c1cccc(NC(=O)c2cc(-c3ccc(OC(F)F)cn3)[nH]c2C)c1` [Compound 222, 5-(5-(difluoromethoxy)pyridin-2-yl)-N-(3-(1,1-difluoropropyl)phenyl)-2-methyl-1H-pyrrole-3-carboxamide], for which the IC50 is above 100 nM. Then `Cc1nn(-c2ccc(OC(F)F)cc2)nc1C(=O)Nc1cccc(C(C)(F)F)c1` [Compound 164, N-(3-(1,1-difluoroethyl)phenyl)-2-(4-(difluoromethoxy)phenyl)-5-methyl-2H-1,2,3-triazole-4-carboxamide], with above 100 nM; and `Cc1nn(-c2ccc(OC(F)F)cc2)c(N(C)C)c1C(=O)Nc1cccc(C(C)(F)F)c1` [Compound 168, N-(3-(1,1-difluoroethyl)phenyl)-1-(4-(difluoromethoxy)phenyl)-5-(dimethylamino)-3-methyl-1H-pyrazole-4-carboxamide], with 1 to 100 nM. The same measure for `CCCC1(C(=O)Nc2cccc(C(C)(F)F)c2)C(=O)N(c2ccc(OC(F)F)c(-c3ccccc3)c2)N=C1C` (centres unmarked) [Compound 111, N-(3-(1,1-difluoroethyl)phenyl)-1-(6-(difluoromethoxy)-[1,1′-biphenyl]-3-yl)-3-methyl-5-oxo-4-propyl-4,5-dihydro-1H-pyrazole-4-carboxamide]: above 100 nM.

Take `COc1ccc(-n2nc(C)c(C(=O)Nc3cccc(C(C)(F)F)c3)c2OC(=O)N2CCC(N3CCCCC3)CC2)cc1` [Compound 188, 4-((3-(1,1-difluoroethyl)phenyl)carbamoyl)-1-(4-methoxyphenyl)-3-methyl-1H-pyrazol-5-yl [1,4′-bipiperidine]-1′-carboxylate]: the IC50 was 1 to 100 nM. The same measure for `CCC(F)(F)c1cccc(NC(=O)c2cc(C)nc(-c3ccc(OC(F)F)cc3)n2)c1` [Compound 137, 2-(4-(difluoromethoxy)phenyl)-N-(3-(1,1-difluoropropyl)phenyl)-6-methylpyrimidine-4-carboxamide]: 1 to 100 nM.

In the case of `CC1=NN(c2ccc(OC(F)F)c(-c3ccncc3)c2)C(=O)C1(F)C(=O)Nc1cccc(C(C)(F)F)c1` (centres unmarked) [Compound 204, N-(3-(1,1-difluoroethyl)phenyl)-1-(4-(difluoromethoxy)-3-(pyridin-4-yl)phenyl)-4-fluoro-3-methyl-5-oxo-4,5-dihydro-1H-pyrazole-4-carboxamide], the IC50 is below 1 nM.

With `Cc1nn(-c2ccc(OC(F)F)cc2)c(C2CCCC2)c1C(=O)Nc1cccc(C(C)(F)F)c1` [Compound 154, 5-cyclopentyl-N-[3-(1,1-difluoroethyl)phenyl]-1-[4-(difluoromethoxy)phenyl]-3-methyl-pyrazole-4-carboxamide], the IC50 was above 100 nM. The same measure for `CCC(F)(F)c1cccc(NC(=O)c2c(C)[nH]c(-c3ccc(OC)c(-c4ncccc4C)c3)[n+]2[O-])c1` [Compound 249, 4-((3-(1,1-difluoropropyl)phenyl)carbamoyl)-2-(4-methoxy-3-(3-methylpyridin-2-yl)phenyl)-5-methyl-1H-imidazole 3-oxide]: below 1 nM.

On to `CCC(F)(F)c1cccc(NC(=O)c2ncc(-c3ccc(OC(F)F)cc3)nc2C)c1` [Compound 132, 5-(4-(difluoromethoxy)phenyl)-N-(3-(1,1-difluoropropyl)phenyl)-3-methylpyrazine-2-carboxamide], for which the IC50 is above 100 nM.

With `Cc1c(C(=O)Nc2cccc(C(C)(F)F)c2)c(=O)n(-c2ccc3cc[nH]c3c2)n1Cc1ccccc1` [Compound 108, 1-benzyl-N-[3-(1,1-difluoroethyl)phenyl]-2-(1H-indol-6-yl)-5-methyl-3-oxo-pyrazole-4-carboxamide], the IC50 was above 100 nM. With `CCC(F)(F)c1cccc(NC(=O)c2nc(-c3ccc(OC(F)F)cc3)oc2C)c1` [Compound 112, 2-(4-(difluoromethoxy)phenyl)-N-(3-(1,1-difluoropropyl)phenyl)-5-methyloxazole-4-carboxamide], the half-inhibitory concentration (IC50) is 1 to 100 nM. The same measure for `CCC(F)(F)c1cccc(NC(=O)c2cnc(-c3ccc(OC(F)F)c(-c4ccccn4)c3)nc2C)c1` [Compound 119, 2-(4-(difluoromethoxy)-3-(pyridin-2-yl)phenyl)-N-(3-(1,1-difluoropropyl)phenyl)-4-methylpyrimidine-5-carboxamide]: above 100 nM. The same measure for `CCC(F)(F)c1cccc(NC(=O)c2cc(-c3ccc(OC(F)F)c(-c4ccccc4)c3)[nH]c2C)c1` [Compound 217, 5-[4-(difluoromethoxy)-3-phenyl-phenyl]-N-[3-(1,1-difluoropropyl)phenyl]-2-methyl-1H-pyrrole-3-carboxamide]: above 100 nM; for `Cc1nn(-c2ccc(OC(F)F)cc2)c(C(C)C)c1C(=O)Nc1cccc(C(C)(F)F)c1` [Compound 146, N-[3-(1,1-difluoroethyl)phenyl]-1-[4-(difluoromethoxy)phenyl]-5-isopropyl-3-methyl-pyrazole-4-carboxamide]: above 100 nM; for `CC1=NN(c2ccc(OC(F)F)cc2)C(=O)[C@]1(C)C(=O)Nc1cccc(C(C)(F)F)c1` [Compound 170, (4S)—N-(3-(1,1-difluoroethyl)phenyl)-1-(4-(difluoromethoxy)phenyl)-3,4-dimethyl-5-oxo-4,5-dihydro-1H-pyrazole-4-carboxamide]: above 100 nM. On to `CC1=NN(c2ccc(OC(F)F)cc2)C(=O)C1(C)C(=O)Nc1cc(C)cc(Cl)c1` (centres unmarked) [Compound 157, N-(3-chloro-5-methyl-phenyl)-1-[4-(difluoromethoxy)phenyl]-3,4-dimethyl-5-oxo-pyrazole-4-carboxamide], for which the IC50 is above 100 nM. Then `CCC(F)(F)c1cccc(NC(=O)c2cc(-c3ccc(OC(F)F)cc3)[nH]c2C)c1` [Compound 216, 5-[4-(difluoromethoxy)phenyl]-N-[3-(1,1-difluoropropyl)phenyl]-2-methyl-1H-pyrrole-3-carboxamide], with above 100 nM; and `CC1=NN(c2ccc(OC(F)F)cc2)C(=O)C1(F)C(=O)Nc1cccc(C(C)(F)F)c1` (centres unmarked) [Compound 205, N-(3-(1,1-difluoroethyl)phenyl)-1-(4-(difluoromethoxy)phenyl)-4-fluoro-3-methyl-5-oxo-4,5-dihydro-1H-pyrazole-4-carboxamide], with below 1 nM. Then `Cc1nc(-c2ccc(OC(F)F)cc2)oc1C(=O)Nc1cccc(C(C)(F)F)c1` [Compound 141, N-(3-(1,1-difluoroethyl)phenyl)-2-(4-(difluoromethoxy)phenyl)-4-methyloxazole-5-carboxamide], with above 100 nM.

As to `CCC(F)(F)c1cccc(NC(=O)c2c(C)nn(-c3ccc(OC)cc3)c2Cl)c1` [Compound 231, 5-chloro-N-(3-(1,1-difluoropropyl)phenyl)-1-(4-methoxyphenyl)-3-methyl-1H-pyrazole-4-carboxamide], the IC50 was above 100 nM.

With `Cc1nn(-c2ccc(OC(F)F)c(-c3ccncc3)c2)cc1C(=O)Nc1cccc(C(C)(F)F)c1` [Compound 181, N-(3-(1,1-difluoroethyl)phenyl)-1-(4-(difluoromethoxy)-3-(pyridin-4-yl)phenyl)-3-methyl-1H-pyrazole-4-carboxamide], the IC50 lay in the range of 1 to 100 nM.

For `CCC(F)(F)c1cccc(NC(=O)c2c(C)[nH]c3cc(OC)ccc3c2=O)c1` [Compound 273, N-(3-(1,1-difluoropropyl)phenyl)-7-methoxy-2-methyl-4-oxo-1,4-dihydroquinoline-3-carboxamide], the IC50 was in the range of 1 to 100 nM.

For the compound `CCC(F)(F)c1cccc(NC(=O)c2c(C)nn(-c3ccc(OC)cc3)c2C(C)=O)c1` [Compound 230, 5-acetyl-N-(3-(1,1-difluoropropyl)phenyl)-1-(4-methoxyphenyl)-3-methyl-1H-pyrazole-4-carboxamide], the IC50 is above 100 nM. The same measure for `COc1c(CC2CCCCC2)cc(N2N=C(C)C(C(=O)Nc3cccc(C(C)(F)F)c3)C2=O)cc1-c1ccccc1` (centres unmarked) [Compound 129, 1-(5-(cyclohexylmethyl)-6-methoxy-[1,1′-biphenyl]-3-yl)-N-(3-(1,1-difluoroethyl)phenyl)-3-methyl-5-oxo-4,5-dihydro-1H-pyrazole-4-carboxamide]: 1 to 100 nM; for `CCC(F)(F)c1cccc(NC(=O)c2cc(C)nc(-c3ccc(OC(F)F)c(-c4ccccc4)c3)n2)c1` [Compound 127, 2-(6-(difluoromethoxy)-[1,1′-biphenyl]-3-yl)-N-(3-(1,1-difluoropropyl)phenyl)-6-methylpyrimidine-4-carboxamide]: above 100 nM; for `CC1=NN(c2ccc(OC(F)F)cc2)C(=O)C1(Cl)C(=O)Nc1cccc(C(C)(F)F)c1` (centres unmarked) [Compound 172, 4-chloro-N-(3-(1,1-difluoroethyl)phenyl)-1-(4-(difluoromethoxy)phenyl)-3-methyl-5-oxo-4,5-dihydro-1H-pyrazole-4-carboxamide]: 1 to 100 nM.

`CCc1c(C(=O)Nc2cccc(C(C)(F)F)c2)c(C)nn1-c1ccc(OC(F)F)cc1` [Compound 156, N-(3-(1,1-difluoroethyl)phenyl)-1-(4-(difluoromethoxy)phenyl)-5-ethyl-3-methyl-1H-pyrazole-4-carboxamide]: the half-inhibitory concentration (IC50) is above 100 nM.

Take `CCC(F)(F)c1cccc(NC(=O)c2ncc(-c3ccc(OC(F)F)c(-c4ccccc4)c3)nc2C)c1` [Compound 134, 5-[4-(difluoromethoxy)-3-phenyl-phenyl]-N-[3-(1,1-difluoropropyl)phenyl]-3-methyl-pyrazine-2-carboxamide]: the IC50 is above 100 nM. Then `Cc1nc(-c2ccc(OC(F)F)c(-c3ccccn3)c2)oc1C(=O)Nc1cccc(C(C)(F)F)c1` [Compound 213, N-(3-(1,1-difluoroethyl)phenyl)-2-(4-(difluoromethoxy)-3-(pyridin-2-yl)phenyl)-4-methyloxazole-5-carboxamide], with above 100 nM; and `Cc1nc(-c2ccc(OC(F)F)c(-c3ccccc3)c2)ncc1C(=O)Nc1cccc(C(C)(F)F)c1` [Compound 139, N-[3-(1,1-difluoroethyl)phenyl]-2-[4-(difluoromethoxy)-3-phenyl-phenyl]-4-methyl-pyrimidine-5-carboxamide], with above 100 nM.
